Experimental data published in patent publication US11033547B2, “Carboxamide-pyrimidine derivatives as SHP2 antagonists” (Merck Patent GmbH, priority 2019, dated 2021).
Read-outs that look alike come from different tables or passages of the source.

How the values were obtained:
[1] = target: T1, auto-activated mutant protein SHP2 E76K (Homo sapiens (Human), UniProt Q06124, E76K); test: SHP2 E76K mutant biochemical assay without activating peptide; conditions: no activating peptide, read-out: SHP-2 E76Z IC50 No peptide
T1 sequence (Q06124 whole entry E76K): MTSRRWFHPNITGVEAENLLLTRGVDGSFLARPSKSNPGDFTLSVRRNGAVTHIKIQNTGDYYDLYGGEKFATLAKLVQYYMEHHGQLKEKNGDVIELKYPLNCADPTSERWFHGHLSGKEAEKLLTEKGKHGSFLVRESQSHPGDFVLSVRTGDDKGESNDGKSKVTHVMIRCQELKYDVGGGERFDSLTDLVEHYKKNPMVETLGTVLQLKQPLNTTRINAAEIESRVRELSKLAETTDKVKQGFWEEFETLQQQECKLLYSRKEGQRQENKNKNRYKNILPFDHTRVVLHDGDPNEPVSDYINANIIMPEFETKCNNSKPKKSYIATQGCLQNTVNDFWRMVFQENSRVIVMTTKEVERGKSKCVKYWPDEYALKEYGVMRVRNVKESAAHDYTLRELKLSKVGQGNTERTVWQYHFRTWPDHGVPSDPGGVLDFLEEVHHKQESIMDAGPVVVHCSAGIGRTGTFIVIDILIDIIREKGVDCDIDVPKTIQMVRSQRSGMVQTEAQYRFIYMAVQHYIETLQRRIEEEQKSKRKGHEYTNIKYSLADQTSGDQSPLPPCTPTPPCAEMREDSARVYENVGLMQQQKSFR
Protocol: (§1) The inhibition of SHP2 by compounds of the invention was monitored using the surrogate substrate DiFMUP after protein activation by a peptide bearing two appropriately spaced phosphotyrosine. Full length SHP2 protein (Recombinant HumanSHP-2, E. coli derived Ser2Arg593, N-terminal 6His tag from R&D systems; […]) was incubated with activating peptide, IRSI_2pY (New England Peptide, 140 nM) and DiFMUP (molecular probes, 80 uM) at RT in buffer (HEPES pH 7.2 60 mM, DDT 5 mM, KCl 75 mM, NaCl 75 mM, EDTA 1 mM, Tween 20 0.05%) in presence of compound (10 concentrations range, top concentration 50 μM) for 60 min. The generation of the DiFMU product by activated SHP2 was monitored through Fluorescence measurement with a PerkinElmer Envision reader.
(§2) A selection of compounds has been tested in a biochemical assay using same conditions as described in example 3, but with an auto-activated mutant protein SHP2 E76K with and without the addition of the activating peptide IRSI_2pY (New England Peptide, 140 nM).

[2] = target: Kv11.1 (hERG) ion channel (Homo sapiens (Human), UniProt Q12809); assay type: cell-based; conditions: ratio of hERG Ki (patch clamp) to pERK IC50 in KYSE520
Sequence of Kv11.1 (hERG) ion channel (Q12809 whole entry): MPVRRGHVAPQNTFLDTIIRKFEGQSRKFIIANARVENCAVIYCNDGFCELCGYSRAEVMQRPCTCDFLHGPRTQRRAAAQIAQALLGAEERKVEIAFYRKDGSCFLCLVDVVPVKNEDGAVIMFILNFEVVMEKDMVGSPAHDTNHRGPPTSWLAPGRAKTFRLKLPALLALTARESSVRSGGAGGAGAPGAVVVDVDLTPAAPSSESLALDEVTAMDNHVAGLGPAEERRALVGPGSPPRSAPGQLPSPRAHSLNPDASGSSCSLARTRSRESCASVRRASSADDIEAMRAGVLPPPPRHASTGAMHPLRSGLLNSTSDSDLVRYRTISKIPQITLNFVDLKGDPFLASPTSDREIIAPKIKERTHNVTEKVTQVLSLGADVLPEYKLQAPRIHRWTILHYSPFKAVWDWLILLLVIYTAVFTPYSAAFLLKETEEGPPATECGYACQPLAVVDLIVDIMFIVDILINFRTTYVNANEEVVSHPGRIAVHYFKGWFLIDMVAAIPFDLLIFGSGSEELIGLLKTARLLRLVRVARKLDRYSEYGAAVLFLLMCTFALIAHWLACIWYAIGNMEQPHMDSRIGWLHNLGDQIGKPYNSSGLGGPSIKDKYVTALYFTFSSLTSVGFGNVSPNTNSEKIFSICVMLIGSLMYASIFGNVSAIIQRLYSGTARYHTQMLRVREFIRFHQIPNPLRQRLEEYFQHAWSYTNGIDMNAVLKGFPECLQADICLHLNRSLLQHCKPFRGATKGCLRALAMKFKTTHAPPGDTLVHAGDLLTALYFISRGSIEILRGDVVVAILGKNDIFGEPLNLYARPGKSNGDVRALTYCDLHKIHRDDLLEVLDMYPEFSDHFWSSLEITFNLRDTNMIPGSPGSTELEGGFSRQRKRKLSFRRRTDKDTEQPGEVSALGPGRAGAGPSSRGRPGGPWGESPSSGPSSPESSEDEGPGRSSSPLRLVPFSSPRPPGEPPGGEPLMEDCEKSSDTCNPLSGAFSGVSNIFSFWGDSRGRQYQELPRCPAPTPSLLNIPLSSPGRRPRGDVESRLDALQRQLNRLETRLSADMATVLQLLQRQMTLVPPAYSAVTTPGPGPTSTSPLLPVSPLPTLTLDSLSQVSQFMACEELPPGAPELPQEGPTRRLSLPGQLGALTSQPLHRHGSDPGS
Protocol: Inhibition of the ion channel hErg (or Kv11.1) current causes QT interval prolongation resulting in potentially fatal ventricular tachyarrhythmia called Torsade de Pointes.
hERG ion channel activity was assessed using a patch clamp technique in stable Kv11.1 (hERG) transfected human embryonic kidney cell line (HEK293). Whole cell recordings were carried out with an automated patch clamp device Patchliner™ from Nanion Technologies, Munich following manufacturer recommendation. Different concentrations of the test compound or reference, quinidine, were applied to whole cells suspension and current was measured using a pulse pattern with fixed amplitudes.

[3] = target: T1, auto-activated mutant protein SHP2 E76K; test: SHP2 E76K mutant biochemical assay with activating peptide IRSI_2pY; conditions: SHP2 E76K mutant with activating peptide IRSI_2pY 140 nM; read-out: SHP-2 E76Z IC50 peptide
Protocol: as §1, §2

[4] = target: Full length SHP2 protein (Recombinant Human SHP-2) (Homo sapiens, UniProt Q06124); test: SHP2 biochemical assay (DiFMUP substrate, activating peptide IRSI_2pY)
Sequence of Full length SHP2 protein (Recombinant Human SHP-2) (Q06124 2-593 limits assumed): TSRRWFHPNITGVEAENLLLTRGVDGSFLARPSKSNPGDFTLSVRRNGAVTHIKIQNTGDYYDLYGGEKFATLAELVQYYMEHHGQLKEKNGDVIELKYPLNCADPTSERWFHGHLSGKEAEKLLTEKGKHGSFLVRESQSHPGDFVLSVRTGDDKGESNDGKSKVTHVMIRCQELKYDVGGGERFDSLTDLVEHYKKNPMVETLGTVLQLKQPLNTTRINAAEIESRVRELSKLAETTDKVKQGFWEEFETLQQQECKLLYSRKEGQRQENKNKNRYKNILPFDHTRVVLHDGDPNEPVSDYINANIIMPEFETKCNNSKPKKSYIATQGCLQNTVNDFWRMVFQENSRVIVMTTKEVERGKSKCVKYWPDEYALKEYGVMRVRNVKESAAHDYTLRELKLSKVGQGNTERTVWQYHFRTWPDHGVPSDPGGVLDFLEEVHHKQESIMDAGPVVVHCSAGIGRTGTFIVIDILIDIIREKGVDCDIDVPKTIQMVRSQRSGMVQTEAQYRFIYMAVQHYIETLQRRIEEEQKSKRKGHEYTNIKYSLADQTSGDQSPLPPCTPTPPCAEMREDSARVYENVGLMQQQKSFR
Protocol: The inhibition of SHP2 by compounds of the invention was monitored using the surrogate substrate DiFMUP after protein activation by a peptide bearing two appropriately spaced phosphotyrosine. […] The generation of the DiFMU product by activated SHP2 was monitored through Fluorescence measurement with a PerkinElmer Envision reader.
The inhibitor dose response curves were analyzed with Genedata Screener.

## NC(=O)c1nc(N2CCC3(CC2)Cc2ccccc2[C@H]3N)nc(N)c1-c1cccc(Cl)c1Cl (single isomer, unassigned) [Compound 117]
[1]
  IC50: 0.5 nM
[2]
  Split between hErg and cell activity Ki(patch Clamp)/IC50 (KYSE): >50
[3]
  IC50: 1.1 nM
[4]; DiFMUP substrate, activating peptide IRSI_2pY, 60 min at RT, read-out: SHP-2 Biochemical assay IC50
  IC50: 1 nM
[4]; wild-type SHP-2 with activating peptide, read-out: SHP-2 IC50 peptide
  IC50: 0.4 nM
